Measurements from PubChem BioAssay (NCI).
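1) Cells in 96-well plates. 2) Compound, 48 h, 5 concentrations. 3) Linear interpolation between surrounding doses. 4) Unreached endpoint = highest concentration. At the GI50, growth is halved. Definition used: TGI = concentration required for complete inhibition of growth.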

Tests used:
Assay in all cases: growth of human tumour cells (NCI), 48 h
[1] = system: BT-549 breast
[2] = system: SK-MEL-2 melanoma
[3] = system: NCI-H460 lung
[4] = system: HCT-116 colon
[5] = system: HCC-2998 colon
[6] = system: SF-295 CNS
[7] = system: T-47D breast
[8] = system: SK-OV-3 ovarian
[9] = system: 786-0 renal
[10] = system: A498 renal
[11] = system: OVCAR-3 ovarian
[12] = system: HT29 colon
[13] = system: SNB-75 CNS
[14] = system: NCI-H522 lung
[15] = system: MDA-MB-468 breast
[16] = system: NCI-H226 lung
[17] = system: MOLT-4 leukemia
[18] = system: SW-620 colon
[19] = system: MCF7 breast
[20] = system: PC-3 prostate
[21] = system: UO-31 renal
[22] = system: SF-539 CNS
[23] = system: MDA-MB-231 breast
[24] = system: UACC-257 melanoma
[25] = system: MALME-3M melanoma
[26] = system: DU-145 prostate
[27] = system: SNB-19 CNS
[28] = system: SF-268 CNS
[29] = system: IGROV1 ovarian
[30] = system: EKVX NSCLC
[31] = system: K-562 leukemia
[32] = system: SK-MEL-5 melanoma
[33] = system: LOX IMVI melanoma
[34] = system: HOP-62 NSCLC
[35] = system: HCT-15 colon
[36] = system: CAKI-1 renal
[37] = system: NCI/ADR-RES ovarian
[38] = system: OVCAR-5 ovarian
[39] = system: MDA-MB-435
[40] = system: HL-60(TB) leukemia
[41] = system: UACC-62 melanoma
[42] = system: SN12C renal
[43] = system: NCI-H23 lung
[44] = system: OVCAR-4 ovarian
[45] = system: OVCAR-8 ovarian
[46] = system: U251 CNS
[47] = system: CCRF-CEM leukemia
[48] = system: SK-MEL-28 melanoma
[49] = system: M14 melanoma
[50] = system: KM12 colon
[51] = system: RPMI-8226 leukemia
[52] = system: A549 NSCLC
[53] = system: TK-10 renal
[54] = system: SR leukemia
[55] = system: HS 578T breast
[56] = system: ACHN renal
[57] = system: COLO 205 colon
[58] = system: HOP-92 NSCLC
[59] = system: RXF 393 renal

CC12OOC(C)(OO1)C2CCC(=O)OCCNc1ccnc2cc(Cl)ccc12 (stereo unspecified)
GI50 [1]: > 18.3 µM | TGI [1]: > 18.3 µM | GI50 [2]: > 18.3 µM | TGI [2]: > 18.3 µM | GI50 [3]: 6.3 µM | TGI [3]: > 18.3 µM | GI50 [4]: 3.59 µM | TGI [4]: 8.67 µM | GI50 [5]: > 18.3 µM | TGI [5]: > 18.3 µM | GI50 [6]: > 18.3 µM | TGI [6]: > 18.3 µM | GI50 [7]: > 18.3 µM | TGI [7]: > 18.3 µM | GI50 [8]: > 18.3 µM | TGI [8]: > 18.3 µM | GI50 [9]: 4.95 µM | TGI [9]: 16.5 µM | GI50 [10]: > 18.3 µM | TGI [10]: > 18.3 µM | GI50 [11]: 3.71 µM | TGI [11]: 7.21 µM | GI50 [12]: 3.46 µM | TGI [12]: 8.62 µM | GI50 [13]: > 18.3 µM | TGI [13]: > 18.3 µM | GI50 [14]: 3.23 µM | TGI [14]: 6.53 µM | GI50 [15]: 2.87 µM | TGI [15]: 7.73 µM | GI50 [16]: 4.19 µM | TGI [16]: 14.2 µM | GI50 [17]: 16.8 µM | TGI [17]: > 18.3 µM | GI50 [18]: 5.83 µM | TGI [18]: > 18.3 µM | GI50 [19]: 7.76 µM | TGI [19]: > 18.3 µM | GI50 [20]: > 18.3 µM | TGI [20]: > 18.3 µM | GI50 [21]: 2.57 µM | TGI [21]: 4.94 µM | GI50 [22]: > 18.3 µM | TGI [22]: > 18.3 µM | GI50 [23]: > 18.3 µM | TGI [23]: > 18.3 µM | GI50 [24]: > 18.3 µM | TGI [24]: > 18.3 µM | GI50 [25]: 3.1 µM | TGI [25]: 5.98 µM | GI50 [26]: 3.47 µM | TGI [26]: 6.32 µM | GI50 [27]: > 18.3 µM | TGI [27]: > 18.3 µM | GI50 [28]: > 18.3 µM | TGI [28]: > 18.3 µM | GI50 [29]: 6.59 µM | TGI [29]: > 18.3 µM | GI50 [30]: > 18.3 µM | TGI [30]: > 18.3 µM | GI50 [31]: 4.11 µM | TGI [31]: 11.8 µM | GI50 [32]: > 18.3 µM | TGI [32]: > 18.3 µM | GI50 [33]: 2.87 µM | TGI [33]: 5.39 µM | GI50 [34]: > 18.3 µM | TGI [34]: > 18.3 µM | GI50 [35]: 2.87 µM | TGI [35]: 5.47 µM | GI50 [36]: 3.21 µM | TGI [36]: 5.96 µM | GI50 [37]: > 18.3 µM | TGI [37]: > 18.3 µM | GI50 [38]: > 18.3 µM | TGI [38]: > 18.3 µM | GI50 [39]: 18.3 µM | TGI [39]: > 18.3 µM | GI50 [40]: > 18.3 µM | TGI [40]: > 18.3 µM | GI50 [41]: > 18.3 µM | TGI [41]: > 18.3 µM | GI50 [42]: > 18.3 µM | TGI [42]: > 18.3 µM | GI50 [43]: > 18.3 µM | TGI [43]: > 18.3 µM | GI50 [44]: 3.5 µM | TGI [44]: 7.42 µM | GI50 [45]: 16.8 µM | TGI [45]: > 18.3 µM | GI50 [46]: > 18.3 µM | TGI [46]: > 18.3 µM | GI50 [47]: 5.36 µM | TGI [47]: 17.5 µM | GI50 [48]: > 18.3 µM | TGI [48]: > 18.3 µM | GI50 [49]: 10.8 µM | TGI [49]: > 18.3 µM | GI50 [50]: > 18.3 µM | TGI [50]: > 18.3 µM | GI50 [51]: 8.81 µM | TGI [51]: > 18.3 µM | GI50 [52]: 4.17 µM | TGI [52]: 12.2 µM | GI50 [53]: 2.69 µM | TGI [53]: 6.03 µM | GI50 [54]: 3.35 µM | TGI [54]: 8.03 µM | GI50 [55]: > 18.3 µM | TGI [55]: > 18.3 µM | GI50 [56]: 1.59 µM | TGI [56]: 3.81 µM | GI50 [57]: 3.57 µM | TGI [57]: 10.8 µM | GI50 [58]: 2.72 µM | TGI [58]: 7.92 µM

COc1ccc(-c2ccnc(SCc3cc4ccccc4[nH]c3=O)n2)cc1OC
GI50 [1]: 7.58 µM | TGI [1]: 34.8 µM | GI50 [2]: 16.9 µM | TGI [2]: 50.4 µM | GI50 [3]: 26.8 µM | TGI [3]: > 100 µM | GI50 [4]: 21.2 µM | TGI [4]: > 100 µM | GI50 [5]: 21.4 µM | TGI [5]: 58.8 µM | GI50 [6]: 13.7 µM | TGI [6]: 34 µM | GI50 [7]: 11 µM | TGI [7]: 38.9 µM | GI50 [8]: 19.9 µM | TGI [8]: 41.7 µM | GI50 [9]: 14.5 µM | TGI [9]: 37.9 µM | GI50 [10]: 17.8 µM | TGI [10]: 50.9 µM | GI50 [11]: 19.5 µM | TGI [11]: 56.4 µM | GI50 [59]: 5.45 µM | TGI [59]: 27.6 µM | GI50 [12]: 18.8 µM | TGI [12]: 40.6 µM | GI50 [13]: 4.36 µM | TGI [13]: 23.6 µM | GI50 [14]: 18.3 µM | TGI [14]: 61.1 µM | GI50 [15]: 4.27 µM | TGI [15]: 34 µM | GI50 [16]: 13 µM | TGI [16]: 37.2 µM | GI50 [17]: 7.17 µM | TGI [17]: > 100 µM | GI50 [19]: 26.9 µM | TGI [19]: > 100 µM | GI50 [20]: 16.5 µM | TGI [20]: 50.8 µM | GI50 [21]: 11.1 µM | TGI [21]: 26.6 µM | GI50 [22]: 12.4 µM | TGI [22]: 27.4 µM | GI50 [24]: 30.6 µM | TGI [24]: 89.9 µM | GI50 [25]: 23.1 µM | TGI [25]: 54.4 µM | GI50 [26]: 18.1 µM | TGI [26]: 71.9 µM | GI50 [27]: 16.9 µM | TGI [27]: 54 µM | GI50 [28]: 20.8 µM | TGI [28]: > 100 µM | GI50 [29]: 16.8 µM | TGI [29]: 39.8 µM | GI50 [30]: 14.6 µM | TGI [30]: 53.5 µM | GI50 [31]: 5.48 µM | TGI [31]: > 100 µM | GI50 [32]: 13 µM | TGI [32]: 42.8 µM | GI50 [34]: 16.4 µM | TGI [34]: 45.8 µM | GI50 [35]: 20 µM | TGI [35]: > 100 µM | GI50 [36]: 8.22 µM | TGI [36]: 25.4 µM | GI50 [37]: 14.3 µM | TGI [37]: 49.8 µM | GI50 [38]: 12.7 µM | TGI [38]: 30.8 µM | GI50 [39]: 30.6 µM | TGI [39]: > 100 µM | GI50 [40]: 99.6 µM | TGI [40]: > 100 µM | GI50 [41]: 14.5 µM | TGI [41]: 41 µM | GI50 [42]: 12.4 µM | TGI [42]: 34.9 µM | GI50 [43]: 17.4 µM | TGI [43]: 42.6 µM | GI50 [44]: 19.1 µM | TGI [44]: 84.6 µM | GI50 [45]: 23.2 µM | TGI [45]: > 100 µM | GI50 [46]: 19.9 µM | TGI [46]: > 100 µM | GI50 [47]: 34.3 µM | TGI [47]: > 100 µM | GI50 [48]: 17.3 µM | TGI [48]: 38.5 µM | GI50 [49]: 40.3 µM | TGI [49]: > 100 µM | GI50 [50]: 30.8 µM | TGI [50]: > 100 µM | GI50 [51]: 16.3 µM | TGI [51]: > 100 µM | GI50 [52]: 23.6 µM | TGI [52]: > 100 µM | GI50 [53]: 17.5 µM | TGI [53]: 58.9 µM | GI50 [54]: 18.3 µM | TGI [54]: > 100 µM | GI50 [56]: 13.5 µM | TGI [56]: 27.8 µM | GI50 [57]: 33.9 µM | TGI [57]: > 100 µM | GI50 [58]: 1.84 µM | TGI [58]: 14.9 µM
